What all share (type): in vivo, mouse
For one test, the system named is pSTAT3. The experiment in a line: Pharmacodynamic renal pSTAT3 (JAK2 inhibition marker) in MRL/lpr mice. As to conditions: four hours after final dosing at EOS. An excerpt: MRL/lpr mice were first randomized, initial bleeds collected, and body weights recorded for baseline measurements (FIG. 1). All mice were individually ear tagged and were monitored throughout the entire experiment (e.g., “Group#-Cage letter-Mouse#”, so “3B5”=Group 3 (G3), cage B, mouse#5). Mice were age-matched and treatment started at 6-8 weeks of age. Cheek bleeds and urine collection continued weekly throughout the experiment. Mice were individually tracked for several parameters including cytokine and ANA levels, proteinuria, body mass, lymphomegaly, general health, and mortality. All parameters were evaluated bi-monthly except mortality which was monitored daily. All groups consisted of a minimum of at least 10-12 mice per group. Ex vivo experiments included flow cytometry analyses for plasma cells, serum complement C3 and ANA levels; urine protein and leukocytes, serum cytokine profiling, renal histo pathology, and determination of compound levels (pharmacokinetics (PK)) in the spleen, kidney and plasma. Mice were tracked on an individual basis. For all data, mice were grouped into populations and data graphed as mean±SEM. Bi-monthly observations and data collected were recorded for each group, except mortality which was performed daily. End-stage readouts were analyzed as described in the MATERIALS AND METHODS section (above) and in FIG. 1. […]

The next test has as its system IL-4. The experiment in a line: Serum IL-4 in NZM mice. The procedure:
For the processing of serum samples for cytokine analysis, frozen plasma at −80° C. was thawed on ice, vortexed, and centrifuged for 10 minutes to remove debris and aggregates. A total of 25-50 μL of serum was used for Luminex® assays following the manufacturer's instructions. Ten different mouse cytokines were measured using the mouse cytokine 10-plex bead kit (Invitrogen, Carlsbad, Calif., no. LMC0001). Briefly, filter plates (Millipore, Billerica, Mass., no. MAIPSWU10), were pre-wet with 200 μL of wash solution (kit component) and 25 μL of beads were added per well. […]
(§1) Age mated, female, NZM or NZW/LacJ, mice were matured for the study of lupus nephritis for a total of 7 months or 210 days at which time urine was collected for proteinuria detection. Mice with 0.5-1.0 mg/ml of urine protein as determined by an optical density-based total protein precipitation assay and cross-checked for 30-300 mg/dl of protein as determined by a stick assay were considered proteinuria positive and selected for study entry. […] End-stage lupus nephritis was evaluated by histopathology and scored by a board certified pathologist for the assessment of total renal damage in diseased animals using the scoring method described by Smith et al (Smith, Dong et al. 2007). […]

A further test deals with CD38. The test is described as follows: CD38 expression by flow cytometry in NZM mice. How it is done: Antibodies used for flow cytometry consisted of anti-mouse CD138-APC (eBioscience, San Diego, Calif.), anti-mouse CD19-FITC (eBioscience, San Diego, Calif.), anti-mouse CD38-PE (eBioscience, San Diego, Calif.) and anti-mouse CD45R/B220-Cyc (eBioscience, San Diego, Calif.), Rat IgG1-APC isotype control (eBioscience, San Diego, Calif.), Rat IgG2a-PE isotype control (eBioscience, San Diego, Calif.). All samples were analyzed using an Accuri C6 Flow Cytometer. Complete media was used for all experiments involving the ex vivo culture of splenocytes for all Elispot experiments. […]
as §1

In the case of `CN1CCN(c2cccc(Nc3nc4c(-c5ccc(S(C)(=O)=O)cc5)cccn4n3)c2)CC1` [COMPOUND A, [8-(4-methanesulfonyl-phenyl)-[1,2,4]triazolo[1,5-a]pyridin-2-yl]-[3-(4-methyl-piperazin-1-yl)-phenyl]-amine], the “renal pSTAT3” value in the test with pSTAT3 (55 mg/kg) and with pSTAT3 (100 mg/kg) was “Significant reductions” each time. Also, the “serum IL-4 decrease compared to vehicle” value turned out to be 98.7% in the test on IL-4 (55 mg/kg) and 91.8% in the test with IL-4 (100 mg/kg). In addition, the “decrease in expression of CD38” value is given as 66.6% with CD38 (COMPOUND A 55 mg/kg) and 74.2% with CD38 (COMPOUND A 100 mg/kg).

The values above are taken from patent US9023853B2, “Janus kinase 2 (JAK2) inhibitor for the treatment of lupus” (Cephalon, Inc., priority 2010, dated 2015).
